Experimental data published in the NIST ThermoML archive (doi:10.1021/je0340809).

Experiment: xn = mol fraction of the nth substance listed
Conditions: 101.3 kPa, Liquid

O=C1CCCN1 [2-pyrrolidinone] + O
Conditions	mass density [kg/m3]	speed of sound [m/s]	viscosity [mPa·s]
298.15 K, x2 = 0.0549	1106.53	1637.8	13.02
298.15 K, x2 = 0.1506	1105.77	1641.1	12.29
298.15 K, x2 = 0.2552	1104.43	1662	11.77
298.15 K, x2 = 0.35	1102.41	1691.1	11.32
298.15 K, x2 = 0.4496	1099.53	1711.7	10.63
298.15 K, x2 = 0.5	1097.71	1717.9	10.13
298.15 K, x2 = 0.5566	1095.2	1723.5	9.408
298.15 K, x2 = 0.6422	1089.78	1728.3	8.014
298.15 K, x2 = 0.7532	1077.07	1730.9	5.772
298.15 K, x2 = 0.8516	1056.03	1715.4	3.645
298.15 K, x2 = 0.8714	1050.24	1704.6	3.231
298.15 K, x2 = 0.8856	1045.71	1694.1	2.94
298.15 K, x2 = 0.9	1040.8	1681	2.651
298.15 K, x2 = 0.9249	1031.48	1650.9	2.171
298.15 K, x2 = 0.9369	1026.61	1632.7	1.948
298.15 K, x2 = 0.9526	1019.88	1605.5	1.667
298.15 K, x2 = 0.9651	1014.21	1580.7	1.451
298.15 K, x2 = 0.9748	1009.64	1559.8	1.29
298.15 K, x2 = 0.9906	1001.87	1522.6	1.036
308.15 K, x2 = 0.0549	1098.69	1609.2	8.624
308.15 K, x2 = 0.1506	1097.66	1618.7	8.126
308.15 K, x2 = 0.2552	1095.98	1635.9	7.761
308.15 K, x2 = 0.35	1093.81	1657.3	7.452
308.15 K, x2 = 0.4496	1090.94	1679	6.988
308.15 K, x2 = 0.5	1089.17	1688.1	6.657
308.15 K, x2 = 0.5566	1086.76	1696.7	6.188
308.15 K, x2 = 0.6422	1081.57	1706.4	5.289
308.15 K, x2 = 0.7532	1069.46	1711.6	3.853
308.15 K, x2 = 0.8516	1049.57	1695.1	2.489
308.15 K, x2 = 0.8714	1044.11	1686.1	2.224
308.15 K, x2 = 0.8856	1039.85	1677.9	2.038
308.15 K, x2 = 0.9	1035.22	1667.7	1.852
308.15 K, x2 = 0.9249	1026.46	1645	1.544
308.15 K, x2 = 0.9369	1021.88	1631.3	1.401
308.15 K, x2 = 0.9526	1015.55	1610.1	1.22
308.15 K, x2 = 0.9651	1010.22	1590.4	1.082
308.15 K, x2 = 0.9748	1005.91	1573.1	0.977
308.15 K, x2 = 0.9906	995.75	1540.9	0.812
318.15 K, x2 = 0.0549	1090.54	1570	6.104
318.15 K, x2 = 0.1506	1089.51	1576.7	5.778
318.15 K, x2 = 0.2552	1087.87	1589.9	5.543
318.15 K, x2 = 0.35	1085.69	–	5.344
318.15 K, x2 = 0.4496	1082.75	–	5.034
318.15 K, x2 = 0.5	1080.94	–	4.807
318.15 K, x2 = 0.5566	1078.51	1650.3	4.48
318.15 K, x2 = 0.6422	1073.38	1663.9	3.845
318.15 K, x2 = 0.7532	1061.72	1678.2	2.823
318.15 K, x2 = 0.8516	1042.81	1675	1.852
318.15 K, x2 = 0.8714	1037.63	1669.5	1.663
318.15 K, x2 = 0.8856	1033.59	1664	1.53
318.15 K, x2 = 0.9	1029.21	1656.8	1.398
318.15 K, x2 = 0.9249	1020.9	1639.6	1.179
318.15 K, x2 = 0.9369	1016.57	1628.8	1.078
318.15 K, x2 = 0.9526	1010.57	1611.8	0.95
318.15 K, x2 = 0.9651	1005.52	1595.5	0.851
318.15 K, x2 = 0.9748	1001.44	1581.1	0.778
318.15 K, x2 = 0.9906	995.2	1553.7	0.662
328.15 K, x2 = 0.0549	1082.33	1556	4.562
328.15 K, x2 = 0.1506	1081.2	1562.4	4.323
328.15 K, x2 = 0.2552	1079.48	1574.8	4.147
328.15 K, x2 = 0.35	1077.27	1592.4	4
328.15 K, x2 = 0.4496	1074.29	1612.3	3.772
328.15 K, x2 = 0.5	1072.48	1621.7	3.605
328.15 K, x2 = 0.5566	1070.03	1631.3	3.364
328.15 K, x2 = 0.6422	1064.97	1644.8	2.895
328.15 K, x2 = 0.7532	1053.71	1659.9	2.143
328.15 K, x2 = 0.8516	1035.74	1660.2	1.427
328.15 K, x2 = 0.8714	1030.84	1656.2	1.288
328.15 K, x2 = 0.8856	1027.01	1652	1.191
328.15 K, x2 = 0.9	1022.85	1646.3	1.095
328.15 K, x2 = 0.9249	1014.98	1632.4	0.932
328.15 K, x2 = 0.9369	1010.86	1623.5	0.858
328.15 K, x2 = 0.9526	1005.16	1609.4	0.764
328.15 K, x2 = 0.9651	1000.35	1595.8	0.69
328.15 K, x2 = 0.9748	996.455	1583.8	0.637
328.15 K, x2 = 0.9906	989.833	1560.8	0.551
338.15 K, x2 = 0.0549	1070.16	1526.1	3.37
338.15 K, x2 = 0.1506	1069.05	1532.8	3.198
338.15 K, x2 = 0.2552	1067.4	1545	3.076
338.15 K, x2 = 0.35	1065.29	1562	2.973
338.15 K, x2 = 0.4496	1062.48	1581.5	2.81
338.15 K, x2 = 0.5	1060.76	1590.8	2.69
338.15 K, x2 = 0.5566	1058.45	1600.7	2.516
338.15 K, x2 = 0.6422	1053.71	1615.2	2.177
338.15 K, x2 = 0.7532	1043.28	1632.8	1.63
338.15 K, x2 = 0.8516	1026.75	1638.6	1.11
338.15 K, x2 = 0.8714	1022.24	1636.4	1.009
338.15 K, x2 = 0.8856	1018.73	1633.7	0.938
338.15 K, x2 = 0.9	1014.9	1629.8	0.867
338.15 K, x2 = 0.9249	1007.65	1619.7	0.749
338.15 K, x2 = 0.9369	1003.86	1613	0.695
338.15 K, x2 = 0.9526	998.592	1602.2	0.627
338.15 K, x2 = 0.9651	994.147	1591.6	0.574
338.15 K, x2 = 0.9748	990.543	1582	0.535
338.15 K, x2 = 0.9906	984.343	1563.7	0.473
